# Reference: publication PMC9769880, “Diverse Sensory Repertoire of Paralogous Chemoreceptors Tlp2, Tlp3, and Tlp4 in Campylobacter jejuni” (Microbiology Spectrum, 2022)
# “Also recorded” adds a separate entry of the source. Like-named read-outs stand apart in the source and are kept apart here.
# Experiments:
# [1] = target: T1, Tlp4 (Campylobacter jejuni, UniProt Q0PBP3); assay: biochemical; type: binding
# Experimental: (§1) His-tagged proteins (Tlp2, -3, and -4) were prepared as previously described ([11]) DNA segments encoding the periplasmic sensory domains (33 to 286 amino acids) of Tlp2 and (38 to 297 amino acids) of Tlp4 were amplified (see Table S7), ligated into pGEM-T Easy (Promega) and subcloned into pET-19b (Novagen) (see Table S6). Recombinant proteins were expressed in E. coli BL21(DE3) using 1 mM IPTG (isopropyl-β-D-thiogalactopyranoside) and purified using His-select-nickel chromatography as described previously ([8], [11]). The purity of the proteins was confirmed by SDS-PAGE and Western blot analysis with anti-His antibodies (Bio-Rad). Protein concentrations were determined using a NanoDrop spectrophotometer (Thermo Fisher).
# (§2) Surface plasmon resonance (SPR) experiments were performed as described previously ([10], [11]) with the following modifications. Briefly, purified proteins were diluted to 0.15 μM in sodium acetate (pH 4.0) and immobilized onto an active flow cell of a CM5 sensor chip with a flow rate of 5 μL/min for 7 min of contact time using a standard amine coupling protocol. Immobilized protein levels for all three proteins ranged from 6028.3 to 9779.3 response units (RU) providing a minimum expected response maximum (RMax) between 20 and 50 RU for the small molecules tested. […] All ligands were prepared in PBS (pH 7.2) and serially diluted from 0.2 to 0.0125 mM. A 10-min dissociation period was allocated after the introduction of each analyte. SPR experiments were performed in single-cycle kinetics mode using the BIAcore S200 biosensor system (Cytiva) at 25°C in PBS (pH 7.2) at a flow rate of 30 μL/min. The equilibrium dissociation constant (KD) for each analyte was determined using BIAcore S200 Evaluation software with a report point 4 s after the injection stop to account for the bulk transfer of the small molecule against a large amount of immobilized protein (as shown in Fig. S5).
# [2] = target: T2, Tlp2 (Campylobacter jejuni, UniProt Q0PBZ3); assay: biochemical; type: binding
# Experimental: as §1, §2
# [3] = target: T1, Tlp4; type: binding
# Experimental: (§3) Glycan (>400 monosaccharides or complex glycans) and small molecule arrays containing amino acids and salts were performed as described previously by Day et al. ([67]). Briefly, 1 μg of purified recombinant protein was complexed with anti-His antibody (Cell Signaling Technology) and rabbit anti-mouse/goat anti-rabbit Alexa 555-IgG (Thermo Scientific) at a molar ratio of 1:0.5:0.25 and then incubated on the array for […] in phosphate-buffered saline (PBS). The array slides were scanned at 488/520 nm and analyzed using InnoScan 1100 with MAPIX software. All arrays were performed in triplicate with a total of 12 data points for each glycan tested; the complete data set and MIRAGE (i.e., minimum information regarding a glycomics experiment) results are shown in Tables S3 and S8.
# (§4) Table S8 - Supplementary glycan microarray document based on M IRAGE guidelines. D O I:
# (§5) Classification Guidelines
# (§6) 1. Sample: Glycan Binding Sample
# (§7) Origin: Helicobacter pylori SS1; produced as a recombinant His - tagged protein in E.
# (§8) The preparation of Tlp2,3, and 4 is explained in the Materials and Methods section:
# (§9) Expression and purification of the periplasmic domain of Tlp2,3, and 4.
# (§10) Sample Sample is a His Tagged protein containing only the periplasmic receptor domain of the modifications full length Tlp2,3, and 4transmembrane protein.
# (§11) Please see Materials and Methods: Tlps 2/3/4 bind to a range of ligands, including […]
# (§12) Proteins were complexed with mouse anti- his antibody, with secondary and tertiary AlexaFluor555 antibodies (rabbit anti-mouse, goat anti-rabbit) at a molar ratio of 4:2:1.
# (§13) The protein/antibody complex was incubated on ice for 10 mins prior to placing on the Assay protocol array. Arrays were performed with 1 µg of complexed protein incubated on the array for 20 min. Arrays were then washed 3 times in Array PBS (PBS + 2mM MgCl2 + 2mM CaCl2) then dried by centrifugation for 3 min at 300 x g . Scanning was performed us ing an Innopsys InnoScan 1100AL and analyzed using Mapix (Innopsys). Yes/no binding was determined by six positive replicate spots in three replicate experiments. Positive […]
# (§14) Glycan Glycans in this study are listed in Table S2 and is a published library in doi:
# (§15) Glycans were prepared in one of two ways for printing:
# (§16) Glycan 1. Glycans (with IDs in number/letter format; e.g. 1A, 4C, 7K) were sourced modifications commercially from Dextra Laboratories, Elicityl and Carbosythn and were made into glycoamines using the protocol published in Day et al 2009 (doi:
# (§17) Glycan arrays: We only use glycan arrays as a yes/no binding tool. Due to this we look only at binding that is unambiguously above background vs lack of binding above background. Average background + 3x standard deviation of the background of 20 sets of 4 spots of DMF:DMSO only spots is applied to determine if binding observed is […]
# (§18) Only spots with values equal to or greater than this value were considered as binding from data of any tested slide. These values are slide […]
# (§19) Data Small molecule arrays: We only use amino acid arrays as a yes/no binding tool. Due interpretation to this we look only at binding that is unambiguously above background vs lack of binding above background. Average background + 3x standard deviation of the background of 6 spots of PBS + 2% glycerol only spots is applied to determine if […]
# (§20) Only spots with values equal to or greater than this value were considered as binding from data of any tested slide. These values are slide dependent. […]
# [4] = target: T2, Tlp2; type: binding
# Experimental: as §3, §4, §5, §6, §7, §8, §9, §10, §11, §12, §13, §14, §15, §16, §17, §18, §19, §20
# [5] = target: T3, Tlp3 (Campylobacter jejuni, UniProt Q0P864); assay: biochemical; type: binding
# Experimental: as §1, with “The purity of the proteins was confirmed by SDS-PAGE and Western blot analysis with anti-His antibodies (Bio-Rad).” left out
# Surface plasmon resonance (SPR) experiments were performed as described previously ([10], [11]) with the following modifications. […] All ligands were prepared in PBS (pH 7.2) and serially diluted from 0.2 to 0.0125 mM. A 10-min dissociation period was allocated after the introduction of each analyte. SPR experiments were performed in single-cycle kinetics mode using the BIAcore S200 biosensor system (Cytiva) at 25°C in PBS (pH 7.2) at a flow rate of 30 μL/min. The equilibrium dissociation constant (KD) for each analyte was determined using BIAcore S200 Evaluation software with a report point 4 s after the injection stop to account for the bulk transfer of the small molecule against a large amount of immobilized protein (as shown in Fig. S5).
# [6] = target: T3, Tlp3; assay: Glycan/small molecule arrays with Tlp3; conditions: yes/no binding
# Experimental: as §3, §4, §5, §6, §7, §8, §9, §10, §11, §12, §13, §14, §15, §16, §17, §18, §19, §20
# [7] = tested on: Tlp2; type: cell-based, C. jejuni 11168-O; conditions: nutrient-depleted chemotaxis assay
# Experimental: (§21) The biological relevance of the binding specificities of the Tlp2,3,4 cluster was assessed by examining chemotactic responses of C. jejuni 11168-O tlp2, tlp3, and tlp4 wild-type (WT) and mutant strains using a nutrient-depleted chemotaxis assay. All ligands, with the exception of lysine and cysteine, interacted with Tlp2 and Tlp4 as attractants (Table 1), showing an ~1- to ~2-log decrease (P < 0.05) in migration toward the ligand compared to the WT strain.
# (§22) Chemotaxis assays—the nutrient-depleted chemotaxis assay and the modified hard agar plug assay (tHAP)—were performed as previously described ([11], [34]). The chemotactic responses of all isogenic strains were compared to that of the C. jejuni 11168-O wild-type strain to distinguish between chemoattractants and chemorepellents. For the nutrient-depleted chemotaxis and modified hard agar plug (tHAP) assays, all differences were calculated as changes on a log10 scale. Controls were provided by using nonmotile (C. jejuni 81116 flaAB) and nonchemotactic (C. jejuni NCTC 11168 cheY) mutants ([69]) and mucin as negative and positive controls ([10]).
# [8] = target: Tlp3^LBD W151A (Campylobacter jejuni, UniProt Q0P864, W151A); assay: biochemical
# [9] = target: Tlp3^LBD D169A (Campylobacter jejuni, UniProt Q0P864, D169A); assay: biochemical
# [10] = tested on: Tlp3; type: cell-based, C. jejuni 11168-O; conditions: chemotaxis of mutant compared to WT strain
# Experimental: as §21, §22
# [11] = target: Tlp3^LBD D196A (Campylobacter jejuni, UniProt Q0P864, D196A); assay: biochemical
# [12] = target: Tlp3^LBD K149A (Campylobacter jejuni, UniProt Q0P864, K149A); assay: biochemical
# [13] = target: Tlp3^LBD D170A (Campylobacter jejuni, UniProt Q0P864); assay: biochemical
# [14] = tested on: WT Tlp3^LBD; assay: SPR competition assay (A-B-A inject); type: binding, Campylobacter jejuni; conditions: 15 seconds after injection-B; glucose 300 µM, fucose 300 μM, malic acid 200 μM
# Experimental: . Competition A-B-A analyses determine the specificity of the potential ligand-binding site preferences of WT Tlp3^LBD. The bound protein is saturated with the first analyte (A), followed by the introduction of a second analyte (B); the assay is designed to show whether a cumulative response is observed after the second analyte (B) is added. A cumulative response indicates two independent binding sites, whereas the lack of a cumulative response indicates a single site where ligands compete for binding, i.e., when analyte A occupies a ligand binding site, analyte B cannot bind. […] All response data were normalized to a 100-Da molecular weight for each analyte, allowing direct comparison of the responses. Both actual RU values and theoretical values are recorded for comparison.
# Figure S6. […] A) Injections are […]
# at 300 μM for 60 seconds). Final responses units (RU) of injections are recorded (indicated by dashed vertical […]
# 81 at 15 s econds after injection- B and l fu cose […]
# and fucose were compet ed was 4.4 RU ± 0.46. As this value sits be low 5 RU, it indicates direct competition for […]
# Final respons es units (RU) of injections ar e re cor ded (indicated […]
# As this value sits between
# 5.07- 13.5 RU, it indicates direct competition for the same site with glucos e replacing some of the bound malic acid during the 60 second injection- B.
# [15] = tested on: Δtlp2,3,4 triple mutant; type: cell-based; conditions: compared with the other mutants
# [16] = SPR KD, mean ± SD, NB = no binding, read-out: Tlp4 Affinity
# [17] = SPR KD, mean ± SD, NB = no binding, read-out: Tlp2 Affinity
# [18] = SPR KD, mean ± SD, NB = no binding, read-out: Tlp3 Affinity
# T1 sequence (Q0PBP3 entry or part of it): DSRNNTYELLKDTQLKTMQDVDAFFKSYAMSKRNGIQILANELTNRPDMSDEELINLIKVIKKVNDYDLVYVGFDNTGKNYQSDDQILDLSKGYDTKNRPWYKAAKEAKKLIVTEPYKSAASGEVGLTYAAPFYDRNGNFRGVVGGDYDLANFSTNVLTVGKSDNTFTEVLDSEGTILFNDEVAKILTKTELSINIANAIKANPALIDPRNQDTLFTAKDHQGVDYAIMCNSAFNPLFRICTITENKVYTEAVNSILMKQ
# T2 sequence (Q0PBZ3 entry or part of it): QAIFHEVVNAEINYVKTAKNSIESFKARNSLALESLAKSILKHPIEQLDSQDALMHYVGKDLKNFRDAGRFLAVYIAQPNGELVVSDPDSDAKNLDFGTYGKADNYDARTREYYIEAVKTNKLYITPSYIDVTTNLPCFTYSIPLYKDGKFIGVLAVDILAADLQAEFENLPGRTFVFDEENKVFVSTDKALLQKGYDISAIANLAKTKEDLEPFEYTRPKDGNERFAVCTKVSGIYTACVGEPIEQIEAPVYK
# T3 sequence (Q0P864 entry or part of it): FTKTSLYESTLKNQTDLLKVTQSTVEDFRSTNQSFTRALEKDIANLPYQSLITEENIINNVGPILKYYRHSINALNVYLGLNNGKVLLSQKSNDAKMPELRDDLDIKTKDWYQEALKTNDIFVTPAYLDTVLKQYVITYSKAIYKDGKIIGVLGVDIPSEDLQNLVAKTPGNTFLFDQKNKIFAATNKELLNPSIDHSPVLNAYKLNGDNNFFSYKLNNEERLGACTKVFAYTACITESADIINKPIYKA
# Chain of Tlp3^LBD W151A (Q0P864 41-290 W151A): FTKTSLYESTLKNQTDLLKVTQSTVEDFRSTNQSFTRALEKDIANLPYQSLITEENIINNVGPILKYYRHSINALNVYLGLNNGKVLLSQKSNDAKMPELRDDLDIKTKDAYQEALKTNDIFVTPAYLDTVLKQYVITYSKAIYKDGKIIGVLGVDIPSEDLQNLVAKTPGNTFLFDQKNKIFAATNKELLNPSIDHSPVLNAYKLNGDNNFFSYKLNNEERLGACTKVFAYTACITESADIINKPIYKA
# Chain of Tlp3^LBD D170A (Q0P864 41-290 T170A): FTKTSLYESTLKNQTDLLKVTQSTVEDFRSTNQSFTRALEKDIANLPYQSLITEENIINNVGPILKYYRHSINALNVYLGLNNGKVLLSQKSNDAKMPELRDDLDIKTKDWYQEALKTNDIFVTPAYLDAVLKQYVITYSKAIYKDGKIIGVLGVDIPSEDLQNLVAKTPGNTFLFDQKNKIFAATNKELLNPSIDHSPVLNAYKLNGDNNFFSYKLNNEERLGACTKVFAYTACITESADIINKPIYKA
# Chain of Tlp3^LBD K149A (Q0P864 41-290 K149A): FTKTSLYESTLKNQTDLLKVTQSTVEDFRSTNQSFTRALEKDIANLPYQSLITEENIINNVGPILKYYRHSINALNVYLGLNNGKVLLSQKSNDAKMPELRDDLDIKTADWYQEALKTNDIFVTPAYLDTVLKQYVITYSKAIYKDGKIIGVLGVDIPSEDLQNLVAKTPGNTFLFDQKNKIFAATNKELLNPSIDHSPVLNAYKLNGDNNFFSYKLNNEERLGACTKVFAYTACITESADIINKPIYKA
# Chain of Tlp3^LBD D196A (Q0P864 41-290 D196A): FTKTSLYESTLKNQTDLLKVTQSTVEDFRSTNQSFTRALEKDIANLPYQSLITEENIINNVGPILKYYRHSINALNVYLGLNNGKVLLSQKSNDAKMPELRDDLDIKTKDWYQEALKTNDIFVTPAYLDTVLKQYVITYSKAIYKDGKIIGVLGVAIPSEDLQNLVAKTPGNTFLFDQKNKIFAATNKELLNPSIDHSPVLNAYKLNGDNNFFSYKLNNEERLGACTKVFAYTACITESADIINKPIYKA
# Chain of Tlp3^LBD D169A (Q0P864 41-290 D169A): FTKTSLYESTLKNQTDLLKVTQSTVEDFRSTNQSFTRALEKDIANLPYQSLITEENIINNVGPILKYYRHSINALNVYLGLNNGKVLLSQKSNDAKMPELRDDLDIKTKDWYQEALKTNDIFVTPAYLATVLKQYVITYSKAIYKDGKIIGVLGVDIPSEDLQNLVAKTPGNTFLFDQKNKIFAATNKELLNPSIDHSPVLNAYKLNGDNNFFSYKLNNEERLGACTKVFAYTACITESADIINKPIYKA
smiles,measurement,setting,value
NC(=O)C[C@H](N)C(=O)O [Asparagine],Kd,[1]; [16],45.1 ± 6.1 µM
same,Kd,[2]; [17],12.8 ± 5.1 µM
same,binding to Tlp4 on glycan/small molecule array,[3]; yes/no binding,bound
same,binding to Tlp2 on glycan/small molecule array,[4]; yes/no binding,bound
same,Kd,[5]; [18],> 200 µM
N[C@@H](CC(=O)O)C(=O)O [Aspartate],binding to Tlp3 on glycan/small molecule array,[6],bind specifically
same,Kd,[1],75.3 ± 8.1 µM
same,Kd,[2],95.4 ± 0.9 µM
same,binding to Tlp4 on glycan/small molecule array,[3],bound
same,binding to Tlp2 on glycan/small molecule array,[4],bound
N[C@@H](CS)C(=O)O [Cysteine],Kd,[1]; [16],5.7 ± 5.8 µM
same,Kd,[2]; [17],10.8 ± 3.3 µM
same,binding to Tlp4 on glycan/small molecule array,[3]; yes/no binding,bound
same,binding to Tlp2 on glycan/small molecule array,[4]; yes/no binding,bound
same,Kd,[5]; [18],> 200 µM
same,chemotactic response via Tlp2,[7],did not generate any significant chemotactic response; also recorded: did not affect the chemotactic movement
O=C[C@H](O)[C@@H](O)[C@@H](O)[C@H](O)CO [Galactose],binding to Tlp3 on glycan/small molecule array,[6],interacted
same,Kd,[1],18.3 ± 2.1 µM
same,Kd,[2],17.2 ± 1.3 µM
same,binding to Tlp4 on glycan/small molecule array,[3],interacted
same,binding to Tlp2 on glycan/small molecule array,[4],interacted
N[C@H]1C(O)O[C@H](CO)[C@@H](O)[C@@H]1O (stereo partly drawn) [Glucosamine],Kd,[8],34.3 ± 12.7 µM
same,Kd,[9],38.4 ± 6.45 µM
same,Kd,[1]; [16],> 200 µM
same,Kd,[2]; [17],> 200 µM
same,Kd,[5],7.1 ± 2.9 µM
same,Tlp3 CR (chemoresponse),[10],R
same,Kd,[11],45.5 ± 7.3 µM
same,Kd,[12],24.3 ± 2.1 µM
same,Kd,[13],39.7 ± 8.6 µM
OC[C@H]1OC(O)[C@H](O)[C@@H](O)[C@@H]1O (stereo partly drawn) [Glucose],SPR response of single analyte,[14],5.07 RU
same,binding to Tlp3 on glycan/small molecule array,[6],interacted
same,Kd,[1]; [16],18.3 ± 1.1 µM
same,Kd,[2]; [17],18.1 ± 2.2 µM
same,binding to Tlp4 on glycan/small molecule array,[3]; yes/no binding,interacted
same,binding to Tlp2 on glycan/small molecule array,[4]; yes/no binding,interacted
CC[C@H](C)[C@H](N)C(=O)O [Isoleucine],Kd,[1]; [16],> 200 µM
same,Kd,[2]; [17],> 200 µM
O=C(O)CC(O)C(=O)O (stereo not drawn) [Malic acid],SPR response of single analyte,[14],13.5 RU
same,Kd,[1]; [16],> 10000 µM
same,Kd,[2]; [17],> 10000 µM
CSCC[C@H](N)C(=O)O [Methionine],Kd,[1],6 ± 4.7 µM
same,Kd,[2],1.9 ± 1.2 µM
same,binding to Tlp4 on glycan/small molecule array,[3],bound
same,binding to Tlp2 on glycan/small molecule array,[4],bound
same,Kd,[5]; read-out: Tlp3 Affinity,> 200 µM
c1ncc2nc[nH]c2n1 [Purine],Kd,[8],36.1 ± 15.7 µM
same,Kd,[9],15.7 ± 6.6 µM
same,binding to Tlp3 on glycan/small molecule array,[6],bind specifically
same,Kd,[1]; [16],1.2 ± 0.7 µM
same,Kd,[2]; [17],5.4 ± 1.1 µM
same,binding to Tlp4 on glycan/small molecule array,[3]; yes/no binding,bound
same,binding to Tlp2 on glycan/small molecule array,[4]; yes/no binding,bound
same,"migration toward ligand, Δtlp2,3,4 triple mutant",[15],greatest reduction in migration
same,Kd,[5],37.2 ± 17.4 µM
same,Kd,[11],35.8 ± 1.5 µM
same,Kd,[12],41.9 ± 24 µM
same,Kd,[13],20.6 ± 4 µM
N[C@@H](CO)C(=O)O [Serine],Kd,[1]; [16],14.3 ± 3.2 µM
same,Kd,[2]; [17],6.9 ± 2.4 µM
same,binding to Tlp4 on glycan/small molecule array,[3]; yes/no binding,bound
same,binding to Tlp2 on glycan/small molecule array,[4]; yes/no binding,bound
same,Kd,[5]; [18],> 200 µM
